# Results from patent US20150031655A1, “COMBINATION OF LIVER X RECEPTOR MODULATOR AND ESTROGEN RECEPTOR MODULATOR FOR THE TREATMENT OF AGE-RELATED DISEASES” (UNIVERSITY OF NORTH DAKOTA, priority 2011, published 2015).
# Columns and labels:
# ERβ [1] = molecular target: T1, ERβ (Homo sapiens, UniProt Q92731); experiment: Western blot of ERβ levels in the nucleus (nuclear translocation), SH-SY5Y cells; format: cell-based; conditions: 24 h, treatment alone vs control
# T1 construct: endogenous in cells; host or cells: SH-SY5Y human neuroblastoma cells
# T1 sequence (Q92731 whole entry): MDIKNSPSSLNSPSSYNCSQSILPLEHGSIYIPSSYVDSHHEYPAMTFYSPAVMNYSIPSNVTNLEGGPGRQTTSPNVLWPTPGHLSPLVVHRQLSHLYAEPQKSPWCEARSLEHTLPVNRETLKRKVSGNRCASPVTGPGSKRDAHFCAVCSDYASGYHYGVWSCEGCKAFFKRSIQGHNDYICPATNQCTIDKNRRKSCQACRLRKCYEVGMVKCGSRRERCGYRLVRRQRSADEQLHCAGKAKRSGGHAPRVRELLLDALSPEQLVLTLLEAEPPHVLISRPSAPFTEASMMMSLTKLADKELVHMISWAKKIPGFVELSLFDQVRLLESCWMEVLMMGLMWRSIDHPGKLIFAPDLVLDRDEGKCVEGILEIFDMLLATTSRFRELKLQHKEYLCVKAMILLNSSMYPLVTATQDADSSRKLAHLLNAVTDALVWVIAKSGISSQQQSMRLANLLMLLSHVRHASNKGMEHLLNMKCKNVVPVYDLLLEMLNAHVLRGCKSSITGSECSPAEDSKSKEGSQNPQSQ
# Procedure: (§1) Human neuroblastoma SH-SY5Y cells were grown in DMEM/F12 medium containing 10% fetal bovine serum (FBS) and 1% antibiotic/antimycotic mix. Cells were maintained at 37° C. in a saturated humidity atmosphere containing 95% air and 5% CO2.
# Treated SH-SY5Y cells were washed with PBS and trypsinized to collect the cells and centrifuged at 5000 g. The pellet was washed again with PBS and homogenized in NE-PER tissue protein extraction reagent (Thermo Scientific, Rockford, Ill.) supplemented with protease and phosphatase inhibitors. Protein concentrations from the cytosolic and nuclear homogenates were determined with BCA protein assay.
# Proteins (10 μg) were separated on SDS-PAGE gels, transferred to a polyvinylidene difluoride membrane (BioRad, Hercules, Calif.), and incubated with the following monoclonal antibodies: anti-TH mouse antibody (1:1000; Sigma Aldrich, Saint Louis, Mo.), anti-α-synuclein mouse antibody (1:500; Chemicon, Temecula, Calif.), anti-ERα rabbit antibody (1:500; Abcam, Cambridge, Mass.), anti-ERβ rabbit antibody (1:200; Upstate, Lake Placid, N.Y.), anti-LXRα rabbit antibody (1:500; Abcam, Cambridge, Mass.), anti-LXRβ mouse antibody (1:500; Abcam, Cambridge, Mass.).
# β-actin and Lamin A were used as a gel loading control for cytosolic homogenates and nuclear homogenates respectively. The blots were developed with enhanced chemiluminescence (Immmun-star HRP chemiluminescent kit, Bio-Rad, Hercules, Calif.). Bands were visualized on a polyvinylidene difluoride membrane and analyzed by LabWorks 4.5 software on a UVP Bioimaging System (Upland, Calif.). Quantification of results was performed by densitometry and the results analyzed as total integrated densitometric values (arbitrary units).
# ERβ [2] = molecular target: T1, ERβ; experiment: ChIP, ERβ binding to the ERE half site in the TH promoter; format: cell-based; conditions: SH-SY5Y, treatment alone vs control
# Procedure: as §1
# ChIP analysis was performed to evaluate the extent of ERα/ERβ and LXRα/LXRβ binding to the DNA elements in the TH promoter and α-synuclein promoter regions respectively using “SimpleChIP™ Enzymatic Chromatic IP kit” from Cell Signaling (Boston, Mass.).
# Briefly, cells from each treatment group (3×10^6 cells) were washed with PBS, trypsinized, centrifuged at 5000 g. The pellet containing the cells was further washed with PBS and cross-linked using 37% formaldehyde for 15 min followed by the addition of glycine solution to cease the cross-linking reaction.
# The cells were washed with 4× volumes of 1×PBS and centrifuged at ˜220 g for 5 min. The pellet was resuspended and incubated for 10 min in 5 ml of tissue lysis buffer containing DTT and protease and phosphatase inhibitors. The subsequent steps to isolate the cross-linked chromatin were performed according to the manufacturer's protocol.
# The cross-linked chromatin from each sample was apportioned into four equal parts.
# TNF-α = TNF-α levels in ARPE-19 cells; format: cell-based; conditions: ARPE-19, 24 h, 10 μM, alone vs control
# [3] = tested on: ERE-mediated transcription; experiment: Dual-luciferase ERE reporter assay (ER-mediated transcription); format: cell-based, human; conditions: SH-SY5Y transfected with ERE-luciferase, 24 h
# Procedure: Constructs encoding ERE and TH promoter conjugated to the firefly luciferase gene were used in the study. Human neuroblastoma SH-SY5Y cells were plated in 96-well plates at a density of 2×10^4 cells/well.
# The cells were transfected when 80% confluent with 0.25 μg of either ERE-firefly Luciferase reporter construct, LXRE-firefly Luciferase reporter construct, or TH promotor-firefly Luciferase promoter construct. Respective non-inducible reporter constructs containing constitutively expressing Renilla luciferase were used as negative internal controls. Constitutively expressing GFP constructs were used as positive control to determine transfection efficiency.
# Cells were incubated for 24 hours with Opti-MEM serum free medium (Invitrogen, Carlsbad, Calif.) containing the reporter constructs dissolved in transfection reagent. After 24 hours the medium was changed and the cells were incubated in normal DMEM/F12 medium containing 10% FBS and cells were treated with the different treatment regimens.
# The cells were treated in triplicate and harvested 24 hours later and subjected to dual-luciferases assay. The dual-luciferase assay was performed using a “Dual-Luciferase Reporter Assay System” from Promega (Madison, Wis.). The luminescence recorded is expressed as Relative Luminescence Units (RLU) and normalized to per mg protein. […]
# TH promoter = experiment: Dual-luciferase TH promoter assay; format: cell-based, human; conditions: SH-SY5Y transfected with TH promoter-luciferase, 24 h
# Procedure: Constructs encoding ERE and TH promoter conjugated to the firefly luciferase gene were used in the study. Human neuroblastoma SH-SY5Y cells were plated in 96-well plates at a density of 2×10^4 cells/well. The cells were transfected when 80% confluent with 0.25 μg of either ERE-firefly Luciferase reporter construct, LXRE-firefly Luciferase reporter construct, or TH promotor-firefly Luciferase promoter construct. Respective non-inducible reporter constructs containing constitutively expressing Renilla luciferase were used as negative internal controls. Constitutively expressing GFP constructs were used as positive control to determine transfection efficiency. Cells were incubated for 24 hours with Opti-MEM serum free medium (Invitrogen, Carlsbad, Calif.) containing the reporter constructs dissolved in transfection reagent. After 24 hours the medium was changed and the cells were incubated in normal DMEM/F12 medium containing 10% FBS and cells were treated with the different treatment regimens. The cells were treated in triplicate and harvested 24 hours later and subjected to dual-luciferases assay. The dual-luciferase assay was performed using a “Dual-Luciferase Reporter Assay System” from Promega (Madison, Wis.). The luminescence recorded is expressed as Relative Luminescence Units (RLU) and normalized to per mg protein. Unit value was assigned to control and the magnitude of differences among the samples is expressed relative to the unit value of control cells.
# TH mRNA = experiment: Real time RT-PCR of TH mRNA in SH-SY5Y cells; format: cell-based, human; conditions: 24 h, treatment alone vs control
# Procedure: as §1
# Total RNA was isolated and extracted from treated cells using the 5 prime “PerfectPure RNA tissue kit” (5 Prime, Inc., Gaithersburg, Md.). RNA estimation was performed using “Quant-iT RNA Assay Kit” using a Qubit fluorometer according to the manufacturer's protocol (Invitrogen, Carlsbad, Calif.). cDNA was synthesized by reverse transcribing 1 μg of extracted RNA using an “iScript cDNA synthesis kit” (BioRad, Hercules, Calif.). The oligomeric primers (Sigma, St Louis, Mo.) used to amplify the TH mRNA and α-synuclein mRNA are enumerated in Table 1. The cDNA amplification was performed using an iQ SYBR Green Supermix kit following the manufacturer's instructions (BioRad, Hercules, Calif.). The amplification was performed using an iCycler iQ Multicolor Real Time PCR Detection System (BioRad, Hercules, Calif.). The expression of specific TH and α-synuclein transcripts amplified were normalized to the expression of glyceraldehyde-3-phosphate dehydrogenase (GAPDH).
structure (smiles),measurement,setting,value
"C[C@@H](CO)CCC[C@@H](C)[C@H]1CC[C@H]2[C@@H]3CC=C4C[C@@H](O)CC[C@]4(C)[C@H]3CC[C@]12C [27-OHC, 27-hydroxycholesterol]",nuclear translocation / nuclear levels of ERβ,ERβ [1],decrease
same,attenuation of ERβ binding to the ERE on the TH promoter,ERβ [2],4 fold
same,TNF-α levels,TNF-α,increases
same,decrease of ER-mediated transcription,[3],~5 fold
same,reduction of TH promoter activity,TH promoter,~4 fold
same,TH mRNA,TH mRNA,reduces
